Laboratory results reported in PubChem BioAssay AID493144 (Sanford-Burnham Center for Chemical Genomics, 2011).
Calls of active or inactive are those of the source. No rule for the calls is given here.

Each molecule was assayed against Intestinal-type alkaline phosphatase (Homo sapiens) (UniProt P09923) (assay: inhibition of human intestinal phosphatase enzyme – biochemical, human enzyme for mouse series, mouse IAP inhibitor project, SAR follow-up (AID 493144)). Settings: purified human intestinal alkaline phosphatase, enzymatic activity.
Intestinal-type alkaline phosphatase (Homo sapiens), sequence (P09923 whole entry, looked up): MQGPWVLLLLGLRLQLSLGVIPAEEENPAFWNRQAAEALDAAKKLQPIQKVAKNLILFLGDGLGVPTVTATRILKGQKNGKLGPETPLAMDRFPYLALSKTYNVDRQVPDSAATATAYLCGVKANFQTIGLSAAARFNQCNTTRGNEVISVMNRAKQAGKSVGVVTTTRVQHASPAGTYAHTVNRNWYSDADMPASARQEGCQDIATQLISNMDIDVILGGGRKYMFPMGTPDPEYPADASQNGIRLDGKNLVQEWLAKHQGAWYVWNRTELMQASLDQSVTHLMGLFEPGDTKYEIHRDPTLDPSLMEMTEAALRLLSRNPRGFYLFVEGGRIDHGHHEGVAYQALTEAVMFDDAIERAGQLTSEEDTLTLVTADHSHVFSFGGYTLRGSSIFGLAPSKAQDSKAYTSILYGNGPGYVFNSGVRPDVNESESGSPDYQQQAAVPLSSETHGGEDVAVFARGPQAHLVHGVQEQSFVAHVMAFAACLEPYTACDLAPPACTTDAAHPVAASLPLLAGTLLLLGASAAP

| IC50 | SMILES |
| --- | --- |
| > 100 µM (inactive) | Cc1cc(=O)oc2cc(NC(=S)NCCC(c3ccccc3)c3ccccc3)ccc12 |
| > 100 µM (inactive) | CCn1nc(C)c(CN2CCC(C(=O)Nc3cccc(-c4cccc(Cl)c4)c3)CC2)c1C |
| > 100 µM (inactive) | O=C(Nc1cccc(-c2cccc(Cl)c2)c1)C1CCN(C2CCC2)CC1 |
| > 100 µM (inactive) | C=CCn1cc(CN2CCC(C(=O)Nc3cccc(-c4cccc(F)c4)c3)CC2)c(C)n1 |
| > 100 µM (inactive) | Cc1nn(C)c(Cl)c1CN1CCC(C(=O)Nc2cccc(-c3cccc(F)c3)c2)CC1 |
| > 100 µM (inactive) | Cc1c(CN2CCC(C(=O)Nc3cccc(-c4cccc(Cl)c4)c3)CC2)cnn1C |
| > 100 µM (inactive) | Cn1cc(CN2CCC(C(=O)Nc3cccc(-c4cccc(F)c4)c3)CC2)cn1 |
| > 100 µM (inactive) | CC(C)n1cc(CN2CCC(C(=O)Nc3cccc(-c4cccc(Cl)c4)c3)CC2)cn1 |
| > 100 µM (inactive) | Fc1ccccc1NC(=S)NCCC(c1ccccc1)c1ccccc1 |
| > 100 µM (inactive) | S=C(NCCC(c1ccccc1)c1ccccc1)Nc1ccc(Cl)c(Cl)c1 |
| > 100 µM (inactive) | Cc1cc(NC(=O)CCNS(=O)(=O)c2ccc3[nH]c(=O)oc3c2)ccc1Br |
| > 100 µM (inactive) | CC1(c2ccccc2)CC(C)(C)N(C(=S)Nc2ccccc2)c2ccccc21 (stereo not drawn) |
| > 100 µM (inactive) | S=C(NCCC(c1ccccc1)c1ccccc1)Nc1cccc(Cl)c1 |
| > 100 µM (inactive) | CCn1cc(CN2CCC(C(=O)Nc3cccc(-c4cccc(Cl)c4)c3)CC2)cn1 |
| > 100 µM (inactive) | S=C(NCCC(c1ccccc1)c1ccccc1)Nc1ccc(Nc2ccccc2)cc1 |
| > 100 µM (inactive) | CN(C)S(=O)(=O)c1cccc(NC(=S)NCCC(c2ccccc2)c2ccccc2)c1 |
| > 100 µM (inactive) | Cc1ccc(NC(=S)NCCC(c2ccccc2)c2ccccc2)cc1C |
| > 100 µM (inactive) | Cc1ccc(NC(=O)CCNS(=O)(=O)c2ccc3[nH]c(=O)oc3c2)cc1C |
| > 100 µM (inactive) | C=CCn1cc(CN2CCC(C(=O)Nc3cccc(-c4cccc(Cl)c4)c3)CC2)c(C)n1 |
| > 100 µM (inactive) | Cc1ccc(C)c(NC(=S)NCCC(c2ccccc2)c2ccccc2)c1 |
| > 100 µM (inactive) | O=S(=O)(Nc1ncccn1)c1ccc(NC(=S)NCCC(c2ccccc2)c2ccccc2)cc1 |
| > 100 µM (inactive) | COc1ccc(Cl)cc1Nc1nc(-c2ccc(O)c(O)c2)cs1 |
| > 100 µM (inactive) | O=C(Nc1cccc(-c2cccc(Cl)c2)c1)C1CCN(Cc2ccc(CO)o2)CC1 |

| IC50 | SMILES |
| --- | --- |
| > 100 µM (inactive) | Cc1ccc(NC(=S)NCCC(c2ccccc2)c2ccccc2)cc1 |
| > 100 µM (inactive) | COc1ccc(C(=O)CSc2n[nH]c(-c3ccccc3)n2)cc1OC |
| 14 µM | CCn1c(SCC(=O)c2ccc(O)c(O)c2)nnc1-c1ccccc1OC |
| > 100 µM (inactive) | CC(C)N1CCC(=NNC(=O)c2cc(O)c(O)c(O)c2)CC1 |
| > 100 µM (inactive) | CC(C)n1cc(CN2CCC(C(=O)Nc3cccc(-c4cccc(F)c4)c3)CC2)cn1 |
| > 100 µM (inactive) | COc1cccc(-c2cccc(NC(=O)C3CCN(Cc4ccc(C)o4)CC3)c2)c1 |
| > 100 µM (inactive) | CN1CCC(=NNC(=O)c2cc(O)c(O)c(O)c2)CC1 |
| > 100 µM (inactive) | COc1cccc(NC(=S)NCCC(c2ccccc2)c2ccccc2)c1 |
| > 100 µM (inactive) | Cc1c(Cl)cccc1Nc1nc(-c2ccc(O)c(O)c2)cs1 |
| > 100 µM (inactive) | O=C(Nc1cccc(-c2cccc(F)c2)c1)C1CCN(Cc2ccc(CO)o2)CC1 |
| > 100 µM (inactive) | Cc1cc(C)cc(NC(=S)NCCC(c2ccccc2)c2ccccc2)c1 |
| > 100 µM (inactive) | O=C(CN1C(=O)/C(=C/c2ccco2)SC1=S)Nc1ccc(C(=O)O)cc1 |
| 44.1 µM | Oc1ccc(-c2csc(Nc3cccc4ccccc34)n2)cc1O |
| > 100 µM (inactive) | COc1ccc(Cl)cc1NC(=S)NCCC(c1ccccc1)c1ccccc1 |
| > 100 µM (inactive) | Fc1ccc(NC(=S)NCCC(c2ccccc2)c2ccccc2)cc1Cl |
| > 100 µM (inactive) | CC(C)c1ccccc1NC(=S)NCCC(c1ccccc1)c1ccccc1 |
| > 100 µM (inactive) | Cn1cc(CN2CCC(C(=O)Nc3cccc(-c4cccc(Cl)c4)c3)CC2)cn1 |
| > 100 µM (inactive) | CCn1cc(CN2CCC(C(=O)Nc3cccc(-c4cccc(OC)c4)c3)CC2)cn1 |
| > 100 µM (inactive) | O=[N+]([O-])c1ccc(NC(=S)NCCC(c2ccccc2)c2ccccc2)cc1 |
| > 100 µM (inactive) | CCn1cc(CN2CCC(C(=O)Nc3cccc(-c4cccc(F)c4)c3)CC2)cn1 |
| > 100 µM (inactive) | CCOC(=O)c1ccc(NC(=S)NCCC(c2ccccc2)c2ccccc2)cc1 |
| > 100 µM (inactive) | S=C(NCCC(c1ccccc1)c1ccccc1)Nc1ccc(Cl)cc1Cl |
| > 100 µM (inactive) | COC(=O)c1cc(NC(=S)NCCC(c2ccccc2)c2ccccc2)cc(C(=O)OC)c1 |

| IC50 | SMILES |
| --- | --- |
| > 100 µM (inactive) | COCc1ccc(CN2CCC(C(=O)Nc3cccc(-c4cccc(Cl)c4)c3)CC2)o1 |
| > 100 µM (inactive) | COc1cc([N+](=O)[O-])ccc1NC(=S)NCCC(c1ccccc1)c1ccccc1 |
| > 100 µM (inactive) | COc1cc(NC(=S)NCCC(c2ccccc2)c2ccccc2)cc(OC)c1 |
| > 100 µM (inactive) | S=C(NCCC(c1ccccc1)c1ccccc1)Nc1ccccc1 |
| > 100 µM (inactive) | CCn1cc(CN2CCC(C(=O)Nc3cccc(-c4cccc(OC)c4)c3)CC2)c(C)n1 |
| > 100 µM (inactive) | O=C(CN1C(=O)/C(=C/c2ccco2)SC1=S)Nc1cccc(C(=O)O)c1 |
| > 100 µM (inactive) | COc1cccc(-c2cccc(NC(=O)C3CCN(Cc4ccc(CO)o4)CC3)c2)c1 |
| > 100 µM (inactive) | CCN1CCN(S(=O)(=O)c2ccc3[nH]c(=O)oc3c2)CC1 |
| > 100 µM (inactive) | Cc1c(Cl)cccc1NC(=S)NCCC(c1ccccc1)c1ccccc1 |
| > 100 µM (inactive) | O=C(CN1C(=O)/C(=C\c2ccco2)SC1=S)Nc1ccccc1C(=O)O |
| > 100 µM (inactive) | NS(=O)(=O)c1ccc(NC(=S)NCCC(c2ccccc2)c2ccccc2)cc1 |
| > 100 µM (inactive) | CCn1ncc(CN2CCC(C(=O)Nc3cccc(-c4cccc(F)c4)c3)CC2)c1C |
| > 100 µM (inactive) | FC(F)(F)c1cccc(NC(=S)NCCC(c2ccccc2)c2ccccc2)c1 |
| > 100 µM (inactive) | Cc1nn(C(C)C)c(C)c1CN1CCC(C(=O)Nc2cccc(-c3cccc(F)c3)c2)CC1 |
| > 100 µM (inactive) | Cc1cc(Cl)ccc1NC(=S)NCCC(c1ccccc1)c1ccccc1 |
| > 100 µM (inactive) | COc1ccc(NC(=S)NCCC(c2ccccc2)c2ccccc2)cc1 |
| 21.4 µM | CCc1ccccc1Nc1nc(-c2ccc(O)c(O)c2)cs1 |
| > 100 µM (inactive) | CCCn1ncc(CN2CCC(C(=O)Nc3cccc(-c4cccc(F)c4)c3)CC2)c1C |
| > 100 µM (inactive) | Cc1cccc(NC(=S)NCCC(c2ccccc2)c2ccccc2)c1C |
| > 100 µM (inactive) | CCn1nc(C)c(CN2CCC(C(=O)Nc3cccc(-c4cccc(F)c4)c3)CC2)c1C |
| > 100 µM (inactive) | Cc1ccc(CN2CCC(C(=O)Nc3cccc(-c4cccc(F)c4)c3)CC2)o1 |
| > 100 µM (inactive) | S=C(NCCC(c1ccccc1)c1ccccc1)Nc1ccc(Cl)cc1 |
